# Data as given in ChEMBL document CHEMBL3885881, “DrugMatrix”.
# Organism: Rattus norvegicus
# Assay: DrugMatrix - Regimen: Daily Repeat
# Type: toxicity, organism-based, Sprague-Dawley
# Set-up: regimen Daily Repeat, gender Male, age 6-8 weeks
# Conditions: in vivo, route none, vehicle 100 % UNTREATED; for BASOPHIL / ERYTHROCYTE COUNT / HEMATOCRIT / HEMOGLOBIN / LEUKOCYTE COUNT / LYMPHOCYTE / MEAN CORPUSCULAR HEMOGLOBIN / MEAN CORPUSCULAR HEMOGLOBIN CONCENTRATION / MONOCYTE / NEUTROPHIL / NUCLEATED RED BLOOD CELLS / PLATELET COUNT / ABSOLUTE BASOPHIL / ABSOLUTE EOSINOPHIL / ABSOLUTE LYMPHOCYTE / ABSOLUTE MONOCYTE / ABSOLUTE SEGMENTED NEUTROPHIL / EOSINOPHIL / MEAN CORPUSCULAR VOLUME: tissue Blood
# [1] = 60 mg/kg, 120 h, dose level M1, time 5 day
# [2] = 60 mg/kg, 120 h, tissue Plasma, dose level M1, time 5 day
# [3] = 60 mg/kg, […], dose level M1, time 14 day
# [4] = 60 mg/kg, […], tissue Plasma, dose level M1, time 14 day
# [5] = 75 mg/kg, 120 h, dose level High, time 5 day
# [6] = 75 mg/kg, 120 h, tissue Plasma, dose level High, time 5 day
# [7] = 75 mg/kg, […], dose level High, time 14 day
# [8] = 75 mg/kg, […], tissue Plasma, dose level High, time 14 day
substance,measurement,setting,value
Diet_Restriction,BASOPHIL,[1],0%
same,ERYTHROCYTE COUNT,[1],5.22 x10E6/uL
same,HEMATOCRIT,[1],32.2%
same,HEMOGLOBIN,[1],11.93 G/DL
same,LEUKOCYTE COUNT,[1],4.3 x10E3/uL
same,LYMPHOCYTE,[1],87.33%
same,MEAN CORPUSCULAR HEMOGLOBIN,[1],22.9 pg
same,MEAN CORPUSCULAR HEMOGLOBIN CONCENTRATION,[1],37.1 G/DL
same,MONOCYTE,[1],0.67%
same,NEUTROPHIL,[1],10.67%
same,NUCLEATED RED BLOOD CELLS,[1],0 /100WBC
same,PLATELET COUNT,[1],765.33 x10E3/uL
same,ALANINE AMINOTRANSFERASE,[2],32.33 u/L
same,ALBUMIN,[2],4.3 G/DL
same,ALKALINE PHOSPHATASE,[2],267.33 u/L
same,ASPARTATE AMINOTRANSFERASE,[2],64.33 u/L
same,BLOOD UREA NITROGEN,[2],6.33 mg/dL
same,CARBON DIOXIDE,[2],31.33 mmol/L
same,CHOLESTEROL,[2],52 mg/dL
same,CREATINE PHOSPHOKINASE,[2],263 u/L
same,CREATININE,[2],0.14 mg/dL
same,GLUCOSE,[2],137.33 mg/dL
same,LACTATE DEHYDROGENASE,[2],96 u/L
same,PHOSPHORUS,[2],10.27 mg/dL
same,POTASSIUM,[2],5.6 MEQ/L
same,TOTAL BILIRUBIN,[2],0.1 mg/dL
same,TOTAL PROTEIN,[2],5.93 G/DL
same,ABSOLUTE BASOPHIL,[3],0 CELLS/uL
same,ABSOLUTE EOSINOPHIL,[3],64 CELLS/uL
same,ABSOLUTE LYMPHOCYTE,[3],14236 CELLS/uL
same,ABSOLUTE MONOCYTE,[3],39.33 CELLS/uL
same,ABSOLUTE SEGMENTED NEUTROPHIL,[3],894 CELLS/uL
same,BASOPHIL,[3],0%
same,EOSINOPHIL,[3],0.33%
same,ERYTHROCYTE COUNT,[3],6.6 x10E6/uL
same,HEMATOCRIT,[3],37.43%
same,LEUKOCYTE COUNT,[3],15.23 x10E3/uL
same,LYMPHOCYTE,[3],92.67%
same,MEAN CORPUSCULAR HEMOGLOBIN,[3],21.37 pg
same,MEAN CORPUSCULAR HEMOGLOBIN CONCENTRATION,[3],37.67 G/DL
same,MEAN CORPUSCULAR VOLUME,[3],56.73 fL
same,MONOCYTE,[3],0.33%
same,NEUTROPHIL,[3],6.67%
same,NUCLEATED RED BLOOD CELLS,[3],0 /100WBC
same,PLATELET COUNT,[3],800.67 x10E3/uL
same,ALANINE AMINOTRANSFERASE,[4],47 u/L
same,ALBUMIN,[4],4.4 G/DL
same,ALKALINE PHOSPHATASE,[4],256 u/L
same,ASPARTATE AMINOTRANSFERASE,[4],114.33 u/L
same,BLOOD UREA NITROGEN,[4],15 mg/dL
same,CARBON DIOXIDE,[4],25 mmol/L
same,CHOLESTEROL,[4],65 mg/dL
same,CREATINE PHOSPHOKINASE,[4],1426.33 u/L
same,CREATININE,[4],0.23 mg/dL
same,GLUCOSE,[4],165.33 mg/dL
same,LACTATE DEHYDROGENASE,[4],131.33 u/L
same,LIPASE,[4],12 u/L
same,PHOSPHORUS,[4],11.63 mg/dL
same,POTASSIUM,[4],5.69 MEQ/L
same,TOTAL BILIRUBIN,[4],0.17 mg/dL
same,TOTAL PROTEIN,[4],6.17 G/DL
same,ABSOLUTE BASOPHIL,[5],0 CELLS/uL
same,ABSOLUTE EOSINOPHIL,[5],35.33 CELLS/uL
same,ABSOLUTE LYMPHOCYTE,[5],3939.33 CELLS/uL
same,ABSOLUTE MONOCYTE,[5],67.67 CELLS/uL
same,ABSOLUTE SEGMENTED NEUTROPHIL,[5],957.67 CELLS/uL
same,BASOPHIL,[5],0%
same,EOSINOPHIL,[5],0.67%
same,ERYTHROCYTE COUNT,[5],5.54 x10E6/uL
same,HEMATOCRIT,[5],33.63%
same,HEMOGLOBIN,[5],12.8 G/DL
same,LEUKOCYTE COUNT,[5],5 x10E3/uL
same,LYMPHOCYTE,[5],79%
same,MEAN CORPUSCULAR HEMOGLOBIN,[5],23.13 pg
same,MEAN CORPUSCULAR HEMOGLOBIN CONCENTRATION,[5],38.07 G/DL
same,NEUTROPHIL,[5],19%
same,NUCLEATED RED BLOOD CELLS,[5],0 /100WBC
same,PLATELET COUNT,[5],1074.67 x10E3/uL
same,ALANINE AMINOTRANSFERASE,[6],49.33 u/L
same,ALBUMIN,[6],4.3 G/DL
same,ALKALINE PHOSPHATASE,[6],317.33 u/L
same,ASPARTATE AMINOTRANSFERASE,[6],72 u/L
same,BLOOD UREA NITROGEN,[6],9.33 mg/dL
same,CARBON DIOXIDE,[6],35 mmol/L
same,CHOLESTEROL,[6],65.67 mg/dL
same,CREATINE PHOSPHOKINASE,[6],288.33 u/L
same,CREATININE,[6],0.15 mg/dL
same,GLUCOSE,[6],136.33 mg/dL
same,LACTATE DEHYDROGENASE,[6],95.67 u/L
same,PHOSPHORUS,[6],11.33 mg/dL
same,POTASSIUM,[6],6.01 MEQ/L
same,SODIUM,[6],146.17 MEQ/L
same,TOTAL BILIRUBIN,[6],0.1 mg/dL
same,TOTAL PROTEIN,[6],6.23 G/DL
same,URIC ACID,[6],1 mg/dL
same,ABSOLUTE BASOPHIL,[7],0 CELLS/uL
same,ABSOLUTE EOSINOPHIL,[7],0 CELLS/uL
same,ABSOLUTE LYMPHOCYTE,[7],13779.33 CELLS/uL
same,ABSOLUTE MONOCYTE,[7],115 CELLS/uL
same,ABSOLUTE SEGMENTED NEUTROPHIL,[7],2472.33 CELLS/uL
same,BASOPHIL,[7],0%
same,EOSINOPHIL,[7],0%
same,ERYTHROCYTE COUNT,[7],6.39 x10E6/uL
same,HEMATOCRIT,[7],35.97%
same,HEMOGLOBIN,[7],13.47 G/DL
same,LEUKOCYTE COUNT,[7],16.37 x10E3/uL
same,LYMPHOCYTE,[7],84.33%
same,MEAN CORPUSCULAR HEMOGLOBIN,[7],21.13 pg
same,MEAN CORPUSCULAR HEMOGLOBIN CONCENTRATION,[7],37.47 G/DL
same,MEAN CORPUSCULAR VOLUME,[7],56.37 fL
same,MONOCYTE,[7],0.67%
same,NEUTROPHIL,[7],15%
same,NUCLEATED RED BLOOD CELLS,[7],0 /100WBC
same,PLATELET COUNT,[7],941 x10E3/uL
same,ALANINE AMINOTRANSFERASE,[8],51 u/L
same,ALKALINE PHOSPHATASE,[8],319.33 u/L
same,ASPARTATE AMINOTRANSFERASE,[8],77.33 u/L
same,BLOOD UREA NITROGEN,[8],14 mg/dL
same,CHLORIDE,[8],99.67 MEQ/L
same,CHOLESTEROL,[8],64.33 mg/dL
same,CREATINE PHOSPHOKINASE,[8],271.33 u/L
same,CREATININE,[8],0.23 mg/dL
same,GLUCOSE,[8],175 mg/dL
same,LACTATE DEHYDROGENASE,[8],113 u/L
same,LIPASE,[8],20.33 u/L
same,PHOSPHORUS,[8],12.13 mg/dL
same,POTASSIUM,[8],5.75 MEQ/L
same,TOTAL BILIRUBIN,[8],0.13 mg/dL
same,TOTAL PROTEIN,[8],6.1 G/DL
same,URIC ACID,[8],1.3 mg/dL
